From article PMC10855164, “Ligand-Based Design of Selective Peptidomimetic uPA and TMPRSS2 Inhibitors with Arg Bioisosteres” (International Journal of Molecular Sciences, 2024)

Key:
uPA = target: T1, uPA (Homo sapiens, UniProt P00749); assay: fluorometric enzyme inhibition assay, uPA (Z-Gly-Gly-Arg-AMC); format: biochemical; details: for Ki: from IC50 by Cheng-Prusoff, n.a. = not active, <80% inhibition at 20 µM
T1 construct: purchased Sigma Aldrich
Protocol: The inhibitory activity of the synthesized compounds towards the respective main- and off-target proteases was measured via fluorometric and colorimetric assays. Thus, fluorogenic AMC- or colorimetric pNA-based substrates with a peptide sequence suitable for the tested protease were utilized (see Supplementary Figure S2). At first, the compounds were screened against […] proteases (uPA, TMPRSS2, matriptase, tPA, thrombin, factor Xa) at 20 µM, and a cut-off value of 80% inhibition at this concentration was set, for the differentiation between nonactive (n.a.) and active inhibitors. Due to the reversible inhibition mechanism of the ketobenzothiazole derivates, the IC50 values were determined with Graphpad Prism 9, and afterwards converted to the corresponding Ki values for an adequate comparison between the inhibitory activities of the compounds toward all tested proteases. The Ki values were calculated using the Cheng–Prusoff equation [43].
Fluorometric inhibition assays
The inhibitory activities of the compounds against the proteases were determined by enzyme inhibition assays with fluorogenic or colorimetry-based substrates. The fluorescence, caused by cleaved AMC from the fluorogenic substrates (uPA, matriptase, TMPRSS2, thrombin), was measured in white flat-bottom 96-well plates from Greiner Bio-One using a Tecan Infinite F200 Pro plate reader. The absorption, caused by cleaved pNA from colorimetric substrates (factor Xa and tPA), was measured in transparent flat-bottom 96-well plates from Greiner Bio-One using a Tecan Spark 10M plate reader. All measurements with the main-target proteases (uPA and TMRPSS2) were performed as triplicates and with the off-target proteases (matriptase, factor Xa, tPA, thrombin) as duplicates. The substrates and the compounds were prepared as stock solutions in DMSO. Each well contained a total volume of 200 µL, consisting of 185 µL buffer, 5 µL inhibitor in DMSO or pure DMSO as negative control, 5 µL substrate in DMSO and 5 µL enzyme solution in buffer. Dilution series were prepared for the determination of the inhibition constants. The fluorescence signal and absorbance were measured every 30 s for 10 min at 25 or 37 °C with the corresponding excitation/emission (λex = 380 nm / λem = 460 nm) and absorbance (λabs = 405 nm) wavelengths, depending on the targeted protease. IC50 values for the reversible inhibitors were calculated with Graphpad Prism 9 by fitting the remaining enzymatic activity to the four parameter IC50 equation with Y [%] as the residual enzyme activity , Ymax as the maximum value of the dose response curve at inhibitor concentrations [I] = 0 µM, Ymin as the minimum value at high inhibitor concentrations and s as the hill coefficient.[1] The fluorescence progress curves and sigmoidal dose-response curve for inhibition of uPa by compound 38 is shown exemplary in Figure S2.
Figure S2: (left) Fluorescence progress curves for inhibition of uPa by cpd. 38. (right) Plot showing the respective IC50 value […]
Due to the dependence of the IC50 value on the substrate affinity and concentration, the Ki values were calculated with the Cheng-Prusoff equation, using the final substrate concentration [S] and the Michaelis-Menten constant KM, (2) for appropriate comparison of the inhibitory activities to the other enzymes and inhibitors.[1]
KM values were determined by fitting to the Michaelis-Menten equation using Graphpad Prism 9 with v [ΔF/min] as the substrate hydrolysis rate, vmax as the maximum slope of the dose-response curve, and the substrate [S] concentration.[1] The different substrates were serially diluted in DMSO. The measurement was done in analogy to the determination of the inhibitory activity, but with 5 µL pure DMSO instead of inhibitor solution. The fluorescence progress curves and Michaelis-Menten curve of the specific substrate of uPA is shown exemplarily […]
Figure S3: (left) Fluorescence progress curves of cleavage of Z-Gly-Gly-Arg-AMC by uPA. (right) Michaelis-Menten curve […]

[1] = Parallel Artificial Membrane Permeation Assay (PAMPA); format: in vitro ADME; details: TRIS 50 mM pH 7.4, 5% DMSO, 7 h at room temperature
Excerpt: Following the envisioned applications of the presented inhibitors as drug leads for the treatment of cancer or viral infections, cell permeability is an important factor in the characterization process. […] However, in the organismic contexts of oral bioavailability (facilitated application) and biodistribution (reaching target tissue), adequate permeation is an important quality. To assess this characteristic, PAMPA was used as a suitable model for passive permeation.
Figure S5: Stability analyses of a representative set of inhibitors. The depictions consist of compound structure and number, then analysis at t0, then analysis after 7 h at room temperature, then analysis after 12 h at 37 °C. […]
Incubation setup was assembled and left for 7 h at room temperature. Reference solutions were prepared by simply mixing the indicated volumes of donor and acceptor solutions at the start of the incubation period and analyzed later with the acceptor solutions. […]
Measurement setup for spectroscopy consisted of UV-transparent measurement plate (Greiner UV-Star®, 655801), Tecan Spark 10M® well plate reader, 200 µL sample volume, λ = 200–650 nm. […]
Measurement setup for LC/MS consisted of Agilent 1100 series HPLC system coupled to an Agilent 1100 series LC/MSD Trap with electron spray ionization (ESI). […] Retention time and mass spectrum recorded in positive ionization mode were used to assign species. […]

Selectivity index [SI] uPA (uPA; quotient Ki uPA / Ki TMPRSS2) | Compound | Ki (uPA) | PAMPA permeability Pe [1] | Papp at 7 h ([1]; PAMPA, read-out: PAMPA permeability Pe)
1052 | CC(=O)N[C@@H](Cc1ccccc1)C(=O)N[C@@H](Cc1ccc(NC(=N)N)cc1)C(=O)c1nc2ccccc2s1 [Compound 33] | 5260 ± 922 nM | not enough to exert measurable permeability | –
– | CC(=O)NCC(=O)NC(C(=O)NC(C)C(=O)NC(CC1CCC(NC(=N)N)CC1)C(=O)c1nc2ccccc2s1)C(C)O (centres unmarked) [Compound 38] | 39 ± 5 nM | – | < 1 ×10⁻⁶ cm/s
